Test system: Musca domestica
Assay: Insecticidal activity against Musca domestica (house fly) assessed as mortality per fly pretreated with piperonyl butoxide measured after 24 hr
Assay type: functional

Structure (SMILES)	LD50 [µg]
COCC1Cc2cc([C@H]3OC[C@]4(O)[C@@H](Oc5c(OC)cccc5OC)OC[C@H]34)c(OC)cc2OC1c1ccc2c(c1)OCO2 (mixture of isomers)	1
COCC1Cc2cc([C@@H]3OC[C@]4(O)[C@@H](Oc5c(OC)cccc5OC)OC[C@H]34)c(OC)cc2OC1c1ccc2c(c1)OCO2 (mixture of isomers)	>10
COCC1Oc2cc([C@H]3OC[C@]4(O)[C@@H](Oc5c(OC)cccc5OC)OC[C@H]34)c(OC)cc2CC1c1ccc2c(c1)OCO2 (mixture of isomers)	0.005
COCC1Oc2cc([C@H]3OC[C@]4(O)[C@@H](Oc5ccc6c(c5)OCO6)OC[C@H]34)c(OC)cc2OC1c1ccc2c(c1)OCO2 (mixture of isomers)	0.18
COC[C@@H]1Oc2cc([C@H]3OC[C@]4(O)[C@@H](Oc5ccc6c(c5)OCO6)OC[C@H]34)c(OC)cc2O[C@H]1c1ccc2c(c1)OCO2 (racemic)	>5
COC[C@H]1Oc2cc([C@H]3OC[C@]4(O)[C@@H](Oc5c(OC)cc6c(c5OC)OCO6)OC[C@H]34)c(OC)cc2O[C@@H]1c1ccc2c(c1)OCO2 (racemic) [(+)-HAEDOXAN A]	0.00025
COC[C@H]1Oc2cc([C@H]3OC[C@]4(O)[C@@H](Oc5ccc6c(c5)OCO6)OC[C@H]34)c(OC)cc2O[C@@H]1c1ccc2c(c1)OCO2 (racemic) [(+)-HAEDOXAN E]	0.1
COC[C@H]1Oc2cc([C@H]3OC[C@]4(O)[C@@H](Oc5ccc6c(c5)OCO6)OC[C@H]34)c(OC)cc2O[C@@H]1c1ccc2c(c1)OCO2 [(+)-HAEDOXAN E]	0.05

Reference: ChEMBL document CHEMBL3045299, “Chromano-analogs of Insecticidal Neolignans of the 1,4-Benzodioxane Type” (1993)
